In patent US20260262643A1, “HERBICIDAL BENZOXAZINES” (FMC CORPORATION, priority 2022, published 2026):

Tests used:
kochia [1] = experiment: Test A preemergence; assay type: in vivo, Bassia scoparia
Outline: (§1)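 Greenhouse pot test, 10 days. Compound (non-phytotoxic solvent, surfactant) sprayed on soil at seeding or on seedlings at one- to two-leaf stage. Visual injury rated 0–100 against untreated plants.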

galium = experiment: Test A postemergence; assay type: in vivo, Galium aparine
Outline: as §1

blackgrass [2] = experiment: Test A preemergence; assay type: in vivo, Alopecurus myosuroides; conditions: 1000 g ai/ha, 0 to 100 scale (0 no effect, 100 complete control), 10 days
Outline: as §1

kochia [3] = experiment: Test A postemergence; assay type: in vivo, Bassia scoparia
Outline: as §1

foxtail, giant [4] = experiment: Test A postemergence; assay type: in vivo, Setaria faberi
Outline: as §1

ragweed [5] = experiment: Test A preemergence; assay type: in vivo, Ambrosia artemisiifolia
Outline: as §1

ragweed [6] = experiment: Test A postemergence; assay type: in vivo, Ambrosia artemisiifolia
Outline: as §1

foxtail, giant [7] = experiment: Test A preemergence; assay type: in vivo, Setaria faberi
Outline: as §1

goosegrass [8] = experiment: Test A postemergence; assay type: in vivo, Eleusine indica
Outline: as §1

sedge, umbrella = experiment: Test B flooded paddy test; assay type: in vivo, Cyperus difformis; conditions: 250 g ai/ha, Flood, 13 days, 0 to 100 scale (0 no effect, 100 complete control)
Method: (§2) Plant species in the flooded paddy test selected from barnyardgrass (Echinochloa crus-galli), ducksalad (Heteranthera limosa), rice (Oryza sativa), and sedge, umbrella (small-flower umbrella sedge, Cyperus difformis) were grown to the 2-leaf stage for testing. At time of treatment, test pots were flooded to 3 cm above the soil surface, treated by application of test compounds directly to the paddy water, and then maintained at that water depth for the duration of the test. Treated plants and controls were maintained in a greenhouse for 13 days, after which time all species were compared to controls and visually evaluated. Plant response ratings, summarized in Table B, are based on a scale of 0 to 100 where 0 is no effect and 100 is complete control. A dash (-) response means no test result.

blackgrass [9] = experiment: Test A postemergence; assay type: in vivo, Alopecurus myosuroides
Outline: as §1

pigweed, palmer [10] = experiment: Test A postemergence; assay type: in vivo, Amaranthus palmeri
Outline: as §1

pigweed, palmer [11] = experiment: Test A preemergence; assay type: in vivo, Amaranthus palmeri
Outline: as §1

goosegrass [12] = experiment: Test A preemergence; assay type: in vivo, Eleusine indica
Outline: as §1

barnyardgrass = experiment: Test B flooded paddy test; assay type: in vivo, Echinochloa crus-galli; conditions: 250 g ai/ha, Flood, 13 days, 0 to 100 scale (0 no effect, 100 complete control)
Method: as §2

ducksalad = experiment: Test B flooded paddy test; assay type: in vivo, Heteranthera limosa; conditions: 250 g ai/ha, Flood, 13 days, 0 to 100 scale (0 no effect, 100 complete control)
Method: as §2

ryegrass, Italian [13] = experiment: Test A preemergence; assay type: in vivo, Lolium multiflorum
Outline: as §1

horseweed = experiment: Test A postemergence; assay type: in vivo, Erigeron canadensis
Outline: as §1

ryegrass, Italian [14] = experiment: Test A postemergence; assay type: in vivo, Lolium multiflorum
Outline: as §1

rice = experiment: Test B flooded paddy test; assay type: in vivo, Oryza sativa; conditions: 250 g ai/ha, Flood, 13 days, 0 to 100 scale (0 no effect, 100 complete control)
Method: as §2

wheat [15] = experiment: Test A postemergence; assay type: in vivo, Triticum aestivum; conditions: 500 g ai/ha, postemergence, 10 days, visual injury, 0 to 100 scale (0 no effect, 100 complete control)
From the text: (§3) Seeds of plant species selected from barnyardgrass (Echinochloa crusgalli), blackgrass (Alopecurus myosuroides), corn (Zea mays), foxtail, giant (giant foxtail, Setaria faberi), goosegrass (Eleusine indica), kochia (Bassia scoparia), oat, wild (wild oat, Avena fatua), pigweed, palmer (palmer amaranth, palmer pigweed, Amaranthus palmeri), Pigweed, Redroot (redroot pigweed, Amaranthus retroflexus), ragweed (common ragweed, Ambrosia artemisiifolia), ryegrass, Italian (italian ryegrass, Lolium multiflorum), soybean (Glycine max), and wheat (Triticum aestivum) were planted into a blend of loam soil and sand and treated preemergence with a directed soil spray using test chemicals formulated in a non-phytotoxic solvent mixture which included a surfactant. At the same time, plants selected from these crops and weed species and also galium (catchweed bedstraw, Galium aparine) and horseweed (Erigeron canadensis) were planted in pots containing the same blend of loam soil and sand and treated with postemergence applications of test chemicals formulated in the same manner. Plants ranged in height from 2 to 10 cm and were in the one- to two-leaf stage for the postemergence treatment. Treated plants and untreated controls were maintained in a greenhouse for 10 days, after which time all treated plants were compared to untreated controls and visually evaluated for injury. Plant response ratings, summarized in Table A, are based on a 0 to 100 scale where 0 is no effect and 100 is complete control. A dash (-) response means no test result.

wheat [16] = experiment: Test A preemergence; assay type: in vivo, Triticum aestivum
From the text: as §3

soybean [17] = experiment: Test A postemergence; assay type: in vivo, Glycine max; conditions: 500 g ai/ha, postemergence, 10 days, visual injury, 0 to 100 scale (0 no effect, 100 complete control)
From the text: as §3

soybean [18] = experiment: Test A preemergence; assay type: in vivo, Glycine max
From the text: as §3

oat, wild = experiment: Test A postemergence; assay type: in vivo, Avena fatua; conditions: 500 g ai/ha, postemergence, 10 days, visual injury, 0 to 100 scale (0 no effect, 100 complete control)
From the text: as §3

corn [19] = experiment: Test A preemergence; assay type: in vivo, Zea mays
From the text: as §3

corn [20] = experiment: Test A postemergence; assay type: in vivo, Zea mays; conditions: postemergence, 10 days, visual injury, 0 to 100 scale (0 no effect, 100 complete control)
From the text: as §3

[21] = 1000 g ai/ha, 0 to 100 scale (0 no effect, 100 complete control), 10 days
[22] = 1000 g ai/ha, Postemergence, 0 to 100 scale
[23] = 125 g ai/ha, visual injury after 10 days, 0 to 100 scale, 0 is no effect, 100 is complete control
[24] = 500 g ai/ha, 0 to 100 scale (0 no effect, 100 complete control), 10 days
[25] = 125 g ai/ha, postemergence, 10 days, visual injury, 0 to 100 scale (0 no effect, 100 complete control)
[26] = 500 g ai/ha, postemergence, 10 days, visual injury, 0 to 100 scale (0 no effect, 100 complete control)

Cc1ccc(-n2cncn2)cc1C(=O)N1CC(C)Oc2c(Cl)cccc21 (centres unmarked) [Compound 33]
Plant response rating, Kochia (kochia [1]; [21]): 70
Plant response rating, Galium (galium; [22]): 100
Plant response rating, Blackgrass (blackgrass [2]): 100
Plant response rating, Kochia (kochia [3]; [22]): 70
Plant response rating, Foxtail, Giant (foxtail, giant [4]; [22]): 100
Plant response rating, Ragweed (ragweed [5]; [21]): 100
Plant response rating, Ragweed (ragweed [6]; [22]): 80
Plant response rating, Foxtail, Giant (foxtail, giant [7]; [21]): 100
Plant response rating, Goosegrass (goosegrass [8]; [22]): 90
Plant response rating, Sedge, Umbrella (sedge, umbrella): 65
Plant response rating, Blackgrass (blackgrass [9]; [22]): 90
Plant response rating, Pigweed, Palmer (pigweed, palmer [10]; [22]): 100
Plant response rating, Pigweed, Palmer (pigweed, palmer [11]; [21]): 100
Plant response rating, Goosegrass (goosegrass [12]; [21]): 100
Plant response rating, Barnyardgrass (barnyardgrass): 30
Plant response rating, Ducksalad (ducksalad): 30
Plant response rating, Ryegrass, Italian (ryegrass, Italian [13]; [21]): 100
Plant response rating, Horseweed (horseweed; [22]): 30
Plant response rating, Ryegrass, Italian (ryegrass, Italian [14]; [22]): 100
Plant response rating, Rice (rice): 0

Cc1cccc2c1O[C@@H](C)CN2C(=O)c1cccc(-n2cnc(C3CCC3)n2)c1 [Compound 77]
Plant response rating, Kochia (kochia [1]; [23]): 90
Plant response rating, Kochia (kochia [1]; [24]): 90
Plant response rating, Galium (galium; [25]): 100
Plant response rating, Galium (galium; [26]): 100
Plant response rating, Kochia (kochia [3]; [25]): 90
Plant response rating, Kochia (kochia [3]; [26]): 90
Plant response rating, Foxtail, Giant (foxtail, giant [4]; [25]): 70
Plant response rating, Foxtail, Giant (foxtail, giant [4]; [26]): 90
Plant response rating, Ragweed (ragweed [5]; [23]): 0
Plant response rating, Ragweed (ragweed [5]; [24]): 0
Plant response rating, Wheat (wheat [15]): 30
Plant response rating, Ragweed (ragweed [6]; [26]): 0
Plant response rating, Wheat (wheat [16]; [23]): 20
Plant response rating, Wheat (wheat [16]; [24]): 50
Plant response rating, Foxtail, Giant (foxtail, giant [7]; [23]): 90
Plant response rating, Foxtail, Giant (foxtail, giant [7]; [24]): 100
Plant response rating, Goosegrass (goosegrass [8]; [25]): 20
Plant response rating, Goosegrass (goosegrass [8]; [26]): 60
Plant response rating, Soybean (soybean [17]): 100
Plant response rating, Sedge, Umbrella (sedge, umbrella): 85
Plant response rating, Blackgrass (blackgrass [9]; [25]): 50
Plant response rating, Blackgrass (blackgrass [9]; 500 g ai/ha, Postemergence, 0 to 100 scale): 70
Plant response rating, Pigweed, Palmer (pigweed, palmer [10]; [26]): 70
Plant response rating, Soybean (soybean [18]; [23]): 0
Plant response rating, Soybean (soybean [18]; [24]): 50
Plant response rating, Pigweed, Palmer (pigweed, palmer [11]; [23]): 90
Plant response rating, Pigweed, Palmer (pigweed, palmer [11]; [24]): 100
Plant response rating, Goosegrass (goosegrass [12]; [23]): 100
Plant response rating, Goosegrass (goosegrass [12]; [24]): 100
Plant response rating, Barnyardgrass (barnyardgrass): 0
Plant response rating, Oat, Wild (oat, wild): 10
Plant response rating, Corn (corn [19]; [23]): 0
Plant response rating, Corn (corn [19]; [24]): 30
Plant response rating, Ducksalad (ducksalad): 20
Plant response rating, Ryegrass, Italian (ryegrass, Italian [13]; [23]): 80
Plant response rating, Ryegrass, Italian (ryegrass, Italian [13]; [24]): 100
Plant response rating, Horseweed (horseweed; [25]): 50
Plant response rating, Horseweed (horseweed; [26]): 50
Plant response rating, Corn (corn [20]; 125 g ai/ha): 40
Plant response rating, Corn (corn [20]; 500 g ai/ha): 80
Plant response rating, Ryegrass, Italian (ryegrass, Italian [14]; [26]): 60
Plant response rating, Rice (rice): 0
